Laboratory results as given in patent US5326902A, “Oxyalkyne compounds, pharmaceutical compositions containing them and processes for preparing such compounds and compositions” (Gruenenthal GmbH, priority 1992, dated 1994).

Assays:
[1] = target: T1, 12-lipoxygenase (Homo sapiens, UniProt P18054); test: Inhibition of 12-HETE- and 5S,12S-DiHETE-synthesis induced by FMLP/merthiolate of human polymorphonuclear leukocytes and thrombocytes; format: cell-based; details: coincubation of human granulocytes and thrombocytes, read-out: IC50-value of the inhibitory action on 12-lipoxygenase
T1 sequence (P18054 1-663): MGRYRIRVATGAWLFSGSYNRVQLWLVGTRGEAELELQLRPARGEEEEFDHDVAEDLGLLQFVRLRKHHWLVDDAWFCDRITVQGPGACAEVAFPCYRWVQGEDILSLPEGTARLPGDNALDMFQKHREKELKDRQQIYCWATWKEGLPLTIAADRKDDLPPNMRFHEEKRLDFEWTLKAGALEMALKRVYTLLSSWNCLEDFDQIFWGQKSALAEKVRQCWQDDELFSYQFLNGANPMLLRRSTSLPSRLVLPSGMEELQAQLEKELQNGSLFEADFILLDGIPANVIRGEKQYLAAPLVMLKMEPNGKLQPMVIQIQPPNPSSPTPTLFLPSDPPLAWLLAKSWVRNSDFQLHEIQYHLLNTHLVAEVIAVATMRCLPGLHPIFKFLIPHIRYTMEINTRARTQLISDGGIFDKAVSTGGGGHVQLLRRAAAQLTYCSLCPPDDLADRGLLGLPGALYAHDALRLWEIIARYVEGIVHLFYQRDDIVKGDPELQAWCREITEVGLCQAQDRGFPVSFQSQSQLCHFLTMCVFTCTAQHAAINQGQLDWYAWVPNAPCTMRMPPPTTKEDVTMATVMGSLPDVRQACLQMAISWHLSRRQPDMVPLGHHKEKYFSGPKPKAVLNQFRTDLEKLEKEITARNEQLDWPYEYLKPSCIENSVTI
Method: Human granulocytes were isolated by dextran sedimentation and a Percoll gradient method and suspended in HBSS (Hanks buffered saline solution) at 1×10^7 cells/ml. The cells were incubated in the presence of a compound according to the invention or a solvent (ethanol and/or dimethyl sulfoxide) at 37° C. for 2 minutes, then with merthiolate (sodium ethylmercurithiosalicylate; 40 μM) for 2 minutes and thereafter with FMLP (formyl-methionyl-leucylphenylalanine; 10^-7 M) for 15 minutes. After solid phase extraction, the metabolites of arachidonic acid 5-HETE, LTB4, 6-trans-LTB4 -isomers, 20-OH-LTB4 and 20-COOH-LTB4 were identified by RP-HPLC (M. Haurand and L. Flohe in Biochem. Pharmacol. 38, 2129 to 2137 (1989)).
Coincubations of human granulocytes and thrombocytes were carried out and investigated for inhibition of leukotriene-synthesis induced by FMLP/merthiolate. 12-HETE and 5S, 12S-DiHETE were additionally included into the evaluation. The IC50 -value of the inhibitory action on 12-lipoxygenase was 5 μmolar when the compound prepared according to Example 1 was used.

[2] = test system: bronchoconstriction elicited by ovalbumin; test: Allergen-induced bronchoconstriction in guinea pigs (Konzett-Rossler); format: in vivo, guinea pig; details: Cavia porcellus, 1 h; oral, 60 minutes before ovalbumin (0.2 mg/kg intravenous); passively sensitized guinea pigs; read-out: ED40-Value (40% average inhibition of the bronchoconstriction elicited by ovalbumin)
Method: The anti-asthmatic effect of compounds according to the invention was tested in anesthetized and ventilated guinea pigs. To induce an asthmatic reaction, the animals were passively sensitized by a single intraperitoneal injection of anti-ovalbumin serum. After 48 hours, the asthmatic reaction was elicited by intravenous challenge with 0.2 mg/kg of ovalbumin. The immediately resulting bronchoconstriction was measured as an increase in intratracheal pressure. Effects caused by histamine, serotonin and sympathic counterreaction were eliminated by intravenous pretreatment with 2.15 mg/kg of mepyramine, 46.4 μg/kg of propranolol, 4.64 mg/kg of atropine and 1 mg/kg of methysergide, all administered 5 minutes before challenge. Compounds according to the invention were administered orally 60 minutes before the administration of ovalbumin. The following […] for the inhibition of the bronchoconstriction elicited by ovalbumin, i.e. the effective doses causing a 40% average inhibition of the bronchoconstriction, were determined: […]

IC50 [1]: 5 µM
SMILES: CC(=O)N(O)Cc1ccc(C(O)C#Cc2ccccc2)cc1 (racemic) [Example 1, N-Hydroxy-N-[4-[1-hydroxy-3-phenyl-prop-2-yn-1-yl]benzyl]acetamide]
ED40 [2]: 17 mg/kg
